Assay results reported in US10787462B2, “Heterocyclic compound” (TAKEDA PHARMACEUTICAL COMPANY LIMITED, priority 2015, dated 2020).
Where a name gives a salt, the structure may show the parent alone.

Molecular target: T1, human RIPK1 (1-375) (Homo sapiens, UniProt Q13546)
T1 construct: human RIPK1 (1-375) gene; GST; made in house; host or cells: Sf-9 insect cells
T1 sequence (Q13546 1-375): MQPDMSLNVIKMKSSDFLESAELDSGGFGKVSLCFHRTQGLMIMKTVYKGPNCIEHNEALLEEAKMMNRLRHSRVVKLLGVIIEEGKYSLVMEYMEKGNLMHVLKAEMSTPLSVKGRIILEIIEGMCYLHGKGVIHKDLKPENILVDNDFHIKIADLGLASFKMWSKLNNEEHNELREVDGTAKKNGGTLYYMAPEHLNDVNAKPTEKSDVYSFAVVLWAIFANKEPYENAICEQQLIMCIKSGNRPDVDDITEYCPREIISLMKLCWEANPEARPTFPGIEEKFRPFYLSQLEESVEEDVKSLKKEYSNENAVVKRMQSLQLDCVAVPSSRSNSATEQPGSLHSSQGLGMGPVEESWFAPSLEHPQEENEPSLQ
Experiment: Human RIPK1 enzyme inhibitory effect (ADP-Glo Kinase Assay)
Assay type: biochemical
Details: read-out: human RIPK1 enzyme inhibitory effect at 10 μM (% inhibition), 10 μM test compound; well without enzyme = 100% inhibition
Summary of the method: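 Human RIPK1 (1-375), GST-purified from Sf-9 cells, preincubated 20 min at room temperature with compound in 25 mM HEPES pH 7.5, 10 mM MgCl2, 0.01% Tween-20, 2 mM DTT. Reaction started with 0.6 mM ATP solution (stock), run 120 min at room temperature. ADP measured by ADP-Glo luminescence.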

Structure (SMILES)	inhibition at 10 µM [%]
CN1C(=O)[C@@H](N2CCc3c(nn(Cc4ccccc4)c3Cl)C2=O)COc2cc(C(N)=O)ccc21 [Example 64, (3S)-3-(2-benzyl-3-chloro-7-oxo-2,4,5,7-tetrahydro-6H-pyrazolo[3,4-c]pyridin-6-yl)-5-methyl-4-oxo-2,3,4,5-tetrahydro-1,5-benzoxazepine-8-carboxamide]	101
Cc1nccnc1Cn1nc2c(c1Cl)CCN([C@H]1COc3ccccc3N(C)C1=O)C2=O [Example 73, (3S)-3-(3-chloro-2-((3-methylpyrazin-2-yl)methyl)-7-oxo-2,4,5,7-tetrahydro-6H-pyrazolo[3,4-c]pyridin-6-yl)-5-methyl-2,3-dihydro-1,5-benzoxazepin-4(5H)-one]	91
CNC(=O)c1ccc2c(c1)OC[C@H](N1CCc3c(nn(Cc4ccccc4)c3Cl)C1=O)C(=O)N2C [Example 44, (3S)-3-(2-benzyl-3-chloro-7-oxo-2,4,5,7-tetrahydro-6H-pyrazolo[3,4-c]pyridin-6-yl)-N,5-dimethyl-4-oxo-2,3,4,5-tetrahydro-1,5-benzoxazepine-8-carboxamide]	100
CN1C(=O)[C@@H](N2CCc3cn(Cc4ccccc4)nc3C2=O)COc2cc(Br)ccc21 [Example 41, (3S)-3-(2-benzyl-7-oxo-2,4,5,7-tetrahydro-6H-pyrazolo[3,4-c]pyridin-6-yl)-8-bromo-5-methyl-2,3-dihydro-1,5-benzoxazepin-4(5H)-one]	101
CN1C(=O)C(N2CCc3c(nn(Cc4c(F)cccc4F)c3Cl)C2=O)CCc2c1cnn2C (stereo not drawn) [Example 130, 6-(3-chloro-2-(2,6-difluorobenzyl)-7-oxo-2,4,5,7-tetrahydro-6H-pyrazolo[3,4-c]pyridin-6-yl)-1,4-dimethyl-4,6,7,8-tetrahydropyrazolo[4,3-b]azepin-5(1H)-one]	100
CN1C(=O)[C@@H](N2CCc3cn(Cc4ccccc4F)nc3C2=O)COc2ccccc21 [Example 9, (3S)-3-(2-(2-fluorobenzyl)-7-oxo-2,4,5,7-tetrahydro-6H-pyrazolo[3,4-c]pyridin-6-yl)-5-methyl-2,3-dihydro-1,5-benzoxazepin-4(5H)-one]	100
CN1C(=O)[C@@H](N2CCc3c(nn(Cc4ccccc4)c3Cl)C2=O)COc2cc(-c3nccn3C)ccc21 [Example 60, (3S)-3-(2-benzyl-3-chloro-7-oxo-2,4,5,7-tetrahydro-6H-pyrazolo[3,4-c]pyridin-6-yl)-5-methyl-8-(1-methyl-1H-imidazol-2-yl)-2,3-dihydro-1,5-benzoxazepin-4(5H)-one]	100

The next lines start with the values.

inhibition at 10 µM [%]	Structure (SMILES)
91	O=C1Nc2ccccc2CCC1N1Cc2sc(Cc3ccccc3)nc2C1=O (stereo not drawn) [Example 15, 3-(2-benzyl-4-oxo-4,6-dihydro-5H-pyrrolo[3,4-d][1,3]thiazol-5-yl)-1,3,4,5-tetrahydro-2H-1-benzazepin-2-one]
98	CN1C(=O)[C@@H](N2CCc3sc(Cc4ccccc4)nc3C2=O)COc2ccccc21 [Example 16, (3S)-3-(2-benzyl-4-oxo-6,7-dihydro[1,3]thiazolo[4,5-c]pyridin-5(4H)-yl)-5-methyl-2,3-dihydro-1,5-benzoxazepin-4(5H)-one]
100	CN1C(=O)[C@@H](N2CCc3cn(Cc4ccccc4)nc3C2=O)COc2ccccc21 [Example 1, (3S)-3-(2-benzyl-7-oxo-2,4,5,7-tetrahydro-6H-pyrazolo[3,4-c]pyridin-6-yl)-5-methyl-2,3-dihydro-1,5-benzoxazepin-4(5H)-one]
96	CN1C(=O)[C@@H](N2CCc3[nH]c(Cc4ccccc4)nc3C2=O)COc2ccccc21 [Example 55, (3S)-3-(2-benzyl-4-oxo-1,4,6,7-tetrahydro-5H-imidazo[4,5-c]pyridin-5-yl)-5-methyl-2,3-dihydro-1,5-benzoxazepin-4(5H)-one trifluoroacetate]
98	CN1C(=O)C(N2CCc3c(nn(Cc4ccccc4)c3Cl)C2=O)CCc2cnccc21 (stereo not drawn) [Example 98, 3-(2-benzyl-3-chloro-7-oxo-2,4,5,7-tetrahydro-6H-pyrazolo[3,4-c]pyridin-6-yl)-1-methyl-1,3,4,5-tetrahydro-2H-pyrido[4,3-b]azepin-2-one]
